Assay results: the supplement of paper PMC10307832

Legend:
Assay in all cases: relative viability (nuclei count vs DMSO), 5 days (fraction); higher = more cells survive
[1] = compound: OCc1c[nH]c2ccccc12 [Indole-3-carbinol] + CC(=O)Nc1cccc(-n2c(=O)n(C3CC3)c(=O)c3c(Nc4ccc(I)cc4F)n(C)c(=O)c(C)c32)c1 [Trametinib] (partner 0.02 µM)
Procedure, shortened: (§1)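 Lung cancer cell lines, seeded in 1536-well plates, were treated the following day by pin tool with a single drug or with five library-drug doses (not always all listed) in √10 steps on top of a fixed anchor-drug dose. Cells were fixed and nuclei stained in one step after 5 days, and nuclei were counted. Relative viability is the nuclei count for treated wells divided by that for vehicle wells, reported as medians of duplicate plates.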

[2] = compound: OCc1c[nH]c2ccccc12 [Indole-3-carbinol] + CC1(C)CCC(c2ccc(Cl)cc2)=C(CN2CCN(c3ccc(C(=O)NS(=O)(=O)c4ccc(N[C@H](CCN5CCOCC5)CSc5ccccc5)c(S(=O)(=O)C(F)(F)F)c4)cc3)CC2)C1 [Navitoclax] (partner 0.5 µM)
Procedure, shortened: as §1

[3] = compound: OCc1c[nH]c2ccccc12 [Indole-3-carbinol] + COc1cc2c(Oc3ccc(NC(=O)C4(C(=O)Nc5ccc(F)cc5)CC4)cc3F)ccnc2cc1OCCCN1CCOCC1 [Foretinib] (partner 0.25 µM)
Procedure, shortened: as §1

[4] = compound: OCc1c[nH]c2ccccc12 [Indole-3-carbinol] + CS(=O)(=O)CCNCc1ccc(-c2ccc3ncnc(Nc4ccc(OCc5cccc(F)c5)c(Cl)c4)c3c2)o1 [Lapatinib] (partner 2 µM)
Procedure, shortened: as §1

[5] = compound: OCc1c[nH]c2ccccc12 [Indole-3-carbinol] + Cc1nc(Nc2ncc(C(=O)Nc3c(C)cccc3Cl)s2)cc(N2CCN(CCO)CC2)n1 [Dasatinib] (partner 0.075 µM)
Procedure, shortened: as §1

Cell Line | relative viability ([1]; first compound 0.253 µM) | relative viability ([1]; first compound 0.8 µM) | relative viability ([1]; first compound 2.53 µM) | relative viability ([1]; first compound 8 µM) | relative viability ([2]; first compound 0.253 µM) | relative viability ([2]; first compound 0.8 µM) | relative viability ([2]; first compound 2.53 µM) | relative viability ([2]; first compound 8 µM) | relative viability ([3]; first compound 0.253 µM) | relative viability ([3]; first compound 0.8 µM) | relative viability ([3]; first compound 2.53 µM) | relative viability ([3]; first compound 8 µM) | relative viability ([4]; first compound 0.253 µM) | relative viability ([4]; first compound 0.8 µM) | relative viability ([4]; first compound 2.53 µM) | relative viability ([4]; first compound 8 µM) | relative viability ([5]; first compound 0.253 µM) | relative viability ([5]; first compound 0.8 µM) | relative viability ([5]; first compound 2.53 µM) | relative viability ([5]; first compound 8 µM)
NCI-H1793 | 0.403 | 0.442 | 0.455 | 0.481 | 0.423 | 0.402 | 0.508 | 0.393 | 0.728 | 0.78 | 0.685 | 0.656 | 1.18 | 0.621 | 0.702 | 0.623 | 0.433 | 0.422 | 0.435 | 0.394
NCI-H1915 | 0.282 | 0.294 | 0.342 | 0.296 | 0.753 | 0.787 | 0.768 | 0.762 | 1.03 | 1.08 | 1.06 | 1.01 | 1.01 | 0.968 | 0.993 | 0.972 | 0.285 | 0.311 | 0.328 | 0.291
NCI-H1944 | 0.425 | 0.378 | 0.393 | 0.417 | 1.13 | 1.01 | 1.11 | 1.03 | 0.876 | 0.775 | 0.846 | 0.77 | 0.856 | 0.606 | 0.922 | 0.843 | 0.207 | 0.192 | 0.233 | 0.232
NCI-H1975 | 0.559 | 0.493 | 0.337 | 0.641 | 1.14 | 1.27 | 1.11 | 1.08 | 0.888 | 0.977 | 1.01 | 0.873 | 0.966 | 0.847 | 0.936 | 0.876 | 0.376 | 0.426 | 0.329 | 0.35
NCI-H1993 | 0.483 | 0.519 | 0.513 | 0.554 | 0.958 | 1.1 | 0.89 | 1.01 | 0.716 | 0.899 | 0.763 | 0.846 | 0.827 | 0.839 | 0.791 | 0.773 | 0.762 | 0.619 | 0.662 | 0.605
NCI-H2009 | 0.285 | 0.294 | 0.278 | 0.281 | 1.16 | 1.2 | 1.18 | 1.02 | 1.18 | 1.13 | 1.21 | 1.17 | 1.02 | 0.929 | 0.695 | 0.872 | 0.316 | 0.305 | 0.33 | 0.3
NCI-H2023 | 0.525 | 0.532 | 0.555 | 0.473 | 1.01 | 1.05 | 0.977 | 0.954 | 0.978 | 0.971 | 0.822 | 0.916 | 0.817 | 0.882 | 0.778 | 0.891 | 0.576 | 0.529 | 0.578 | 0.532
NCI-H2085 | 0.884 | 0.514 | 0.56 | 0.622 | 1.1 | 1.02 | 1.15 | 1.05 | 0.781 | 1.11 | 0.879 | 0.865 | 0.855 | 0.789 | 0.8 | 0.828 | 0.259 | 0.225 | 0.256 | 0.262
